One block for each molecule: values may come before it. Activity calls are given as the source filed them.
Assays:
[1] = molecular target: Platelet-derived growth factor receptor beta (Homo sapiens, UniProt P09619); type: functional;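 further: value comes from a kinome panel, with PDGFRB tested as one panel member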
[2] = molecular target: Inhibitor of nuclear factor kappa-B kinase subunit epsilon (Homo sapiens, UniProt Q14164); experiment: Navigating the Kinome. Panel member name: IKBKE; type: functional
[3] = molecular target: T1, Sentrin-specific protease 7 (Homo sapiens, UniProt Q9BQF6); type: functional;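 further: Luminescence-based dose-response confirmation of ultra-high-throughput screening hits, measuring inhibition of SENP7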
T1 sequence (Q9BQF6 whole entry): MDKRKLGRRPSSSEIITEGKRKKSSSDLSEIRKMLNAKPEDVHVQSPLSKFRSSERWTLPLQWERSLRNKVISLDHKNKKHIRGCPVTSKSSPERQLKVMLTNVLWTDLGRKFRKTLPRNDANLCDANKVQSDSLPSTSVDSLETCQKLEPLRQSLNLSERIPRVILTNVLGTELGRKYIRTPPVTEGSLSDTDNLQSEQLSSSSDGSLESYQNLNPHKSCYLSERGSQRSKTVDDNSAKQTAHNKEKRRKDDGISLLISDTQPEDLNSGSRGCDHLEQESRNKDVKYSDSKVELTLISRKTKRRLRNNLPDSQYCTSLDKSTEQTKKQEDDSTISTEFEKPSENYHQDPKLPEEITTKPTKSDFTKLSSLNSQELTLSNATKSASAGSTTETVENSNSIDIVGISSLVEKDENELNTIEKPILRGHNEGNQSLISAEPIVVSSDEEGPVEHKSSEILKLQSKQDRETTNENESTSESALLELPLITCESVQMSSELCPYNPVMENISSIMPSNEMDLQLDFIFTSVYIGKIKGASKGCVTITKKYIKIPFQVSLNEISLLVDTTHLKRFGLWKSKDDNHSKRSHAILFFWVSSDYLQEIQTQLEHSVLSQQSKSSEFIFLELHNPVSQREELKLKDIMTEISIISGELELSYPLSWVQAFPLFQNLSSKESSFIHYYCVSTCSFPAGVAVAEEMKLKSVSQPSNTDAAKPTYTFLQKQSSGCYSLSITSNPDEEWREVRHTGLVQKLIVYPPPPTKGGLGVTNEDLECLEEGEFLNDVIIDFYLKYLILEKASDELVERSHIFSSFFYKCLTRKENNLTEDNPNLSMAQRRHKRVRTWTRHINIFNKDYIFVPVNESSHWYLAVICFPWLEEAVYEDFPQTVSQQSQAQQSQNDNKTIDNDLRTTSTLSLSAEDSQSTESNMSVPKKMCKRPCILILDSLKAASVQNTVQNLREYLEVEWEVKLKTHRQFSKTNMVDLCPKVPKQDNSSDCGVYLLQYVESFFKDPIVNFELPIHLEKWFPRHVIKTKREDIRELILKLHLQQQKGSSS

Caspase-8 = Caspase-8 (Homo sapiens, UniProt Q14790); experiment: inhibitors of purified CASP8 protease – biochemical, Z-IETD-R110 fluorescence, cherry-picked samples, selectivity assay for caspase-6 inhibitor project, dose response (AID 743294)
[4] = molecular target: T2, Sentrin-specific protease 8 (Homo sapiens, UniProt Q96LD8); type: functional;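 further: luminescence read-out of SENP8 inhibition, dose-response confirmation following an ultra-high-throughput screen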
T2 sequence (Q96LD8 whole entry): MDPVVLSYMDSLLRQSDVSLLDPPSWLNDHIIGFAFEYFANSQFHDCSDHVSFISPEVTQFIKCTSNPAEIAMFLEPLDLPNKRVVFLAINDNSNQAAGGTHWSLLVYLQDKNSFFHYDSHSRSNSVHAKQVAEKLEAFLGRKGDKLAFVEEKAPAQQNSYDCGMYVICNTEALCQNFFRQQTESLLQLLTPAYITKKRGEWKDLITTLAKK

[5] = molecular target: Mast/stem cell growth factor receptor Kit (Homo sapiens, UniProt P10721); type: functional;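 further: KIT entry within a kinase panel assay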
[6] = molecular target: Receptor tyrosine-protein kinase erbB-2 (Homo sapiens, UniProt P04626); experiment: Navigating the Kinome. Panel member name: ERBB2; type: functional
[7] = molecular target: Tyrosine-protein kinase FRK (Homo sapiens, UniProt P42685); type: functional;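 further: FRK tested as one member of a kinome panel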
[8] = molecular target: Non-receptor tyrosine-protein kinase TYK2 (Homo sapiens, UniProt P29597); type: functional
[9] = molecular target: Tyrosine-protein kinase Fer (Homo sapiens, UniProt P16591); type: functional;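 further: FER tested as one member of a kinome panel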
[10] = molecular target: Homeodomain-interacting protein kinase 4 (Homo sapiens, UniProt Q8NE63); type: functional
[11] = molecular target: Tyrosine-protein kinase SYK (Homo sapiens, UniProt P43405); type: functional
[12] = molecular target: Dual specificity tyrosine-phosphorylation-regulated kinase 3 (Homo sapiens, UniProt O43781); type: functional;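 further: measured as one member of a broad kinase panel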
[13] = molecular target: Mitogen-activated protein kinase kinase kinase kinase 5 (Homo sapiens, UniProt Q9Y4K4); type: functional;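 further: measured as one member of a kinome-spanning kinase panel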
Misshapen-like kinase 1 = Misshapen-like kinase 1 (Homo sapiens, UniProt Q8N4C8); type: functional;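 further: kinome panel screen with MINK as the panel member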
[14] = molecular target: Serine/threonine-protein kinase D2 (Homo sapiens, UniProt Q9BZL6); type: functional;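 further: measured against PRKD2 as one member of a kinome-wide kinase profiling panel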
[15] = molecular target: Interleukin-1 receptor-associated kinase 1 (Homo sapiens, UniProt P51617); type: functional;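 further: IRAK1 tested as one member of a kinome panel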
[16] = molecular target: Serine/threonine-protein kinase PAK 1 (Homo sapiens, UniProt Q13153); type: functional
[17] = molecular target: Protein kinase C delta type (Homo sapiens, UniProt Q05655); type: functional
[18] = molecular target: Serine/threonine-protein kinase 3 (Homo sapiens, UniProt Q13188); type: functional;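 further: measured as one member of a kinome-wide kinase panel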
[19] = molecular target: Interleukin-1 receptor-associated kinase 4 (Homo sapiens, UniProt Q9NWZ3); type: functional

Sequence of Tyrosine-protein kinase FRK (P42685 whole entry): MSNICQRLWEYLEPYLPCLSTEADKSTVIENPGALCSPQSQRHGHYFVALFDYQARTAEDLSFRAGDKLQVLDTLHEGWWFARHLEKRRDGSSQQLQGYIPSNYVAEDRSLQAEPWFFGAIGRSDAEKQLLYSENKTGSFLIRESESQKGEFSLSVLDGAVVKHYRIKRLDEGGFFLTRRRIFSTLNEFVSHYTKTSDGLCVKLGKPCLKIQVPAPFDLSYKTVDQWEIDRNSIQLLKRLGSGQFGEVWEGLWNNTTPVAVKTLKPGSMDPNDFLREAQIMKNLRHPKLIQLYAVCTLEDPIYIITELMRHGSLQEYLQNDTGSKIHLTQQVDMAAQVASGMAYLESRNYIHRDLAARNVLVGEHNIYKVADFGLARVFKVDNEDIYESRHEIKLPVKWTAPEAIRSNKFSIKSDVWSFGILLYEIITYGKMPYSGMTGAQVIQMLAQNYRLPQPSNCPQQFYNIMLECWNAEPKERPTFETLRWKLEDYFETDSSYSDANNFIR
Sequence of Protein kinase C delta type (Q05655 whole entry): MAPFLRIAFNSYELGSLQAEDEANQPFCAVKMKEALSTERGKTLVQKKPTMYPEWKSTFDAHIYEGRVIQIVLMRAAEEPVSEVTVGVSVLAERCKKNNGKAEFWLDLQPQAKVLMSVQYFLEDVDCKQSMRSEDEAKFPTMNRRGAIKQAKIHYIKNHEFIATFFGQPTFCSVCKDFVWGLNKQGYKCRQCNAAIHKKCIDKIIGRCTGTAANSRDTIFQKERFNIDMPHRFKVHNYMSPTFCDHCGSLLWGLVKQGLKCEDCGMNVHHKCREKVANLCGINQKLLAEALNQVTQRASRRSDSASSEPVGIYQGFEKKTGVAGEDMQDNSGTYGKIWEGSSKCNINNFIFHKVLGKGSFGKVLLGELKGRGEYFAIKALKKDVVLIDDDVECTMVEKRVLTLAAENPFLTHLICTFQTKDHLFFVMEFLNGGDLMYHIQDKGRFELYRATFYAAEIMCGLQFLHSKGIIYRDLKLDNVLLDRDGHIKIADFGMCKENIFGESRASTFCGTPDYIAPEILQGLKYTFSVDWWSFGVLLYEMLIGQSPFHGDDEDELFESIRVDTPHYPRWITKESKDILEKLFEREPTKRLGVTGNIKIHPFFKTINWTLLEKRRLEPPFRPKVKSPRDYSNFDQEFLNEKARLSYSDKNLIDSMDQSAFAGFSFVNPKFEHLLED
Sequence of Mitogen-activated protein kinase kinase kinase kinase 5 (Q9Y4K4 whole entry): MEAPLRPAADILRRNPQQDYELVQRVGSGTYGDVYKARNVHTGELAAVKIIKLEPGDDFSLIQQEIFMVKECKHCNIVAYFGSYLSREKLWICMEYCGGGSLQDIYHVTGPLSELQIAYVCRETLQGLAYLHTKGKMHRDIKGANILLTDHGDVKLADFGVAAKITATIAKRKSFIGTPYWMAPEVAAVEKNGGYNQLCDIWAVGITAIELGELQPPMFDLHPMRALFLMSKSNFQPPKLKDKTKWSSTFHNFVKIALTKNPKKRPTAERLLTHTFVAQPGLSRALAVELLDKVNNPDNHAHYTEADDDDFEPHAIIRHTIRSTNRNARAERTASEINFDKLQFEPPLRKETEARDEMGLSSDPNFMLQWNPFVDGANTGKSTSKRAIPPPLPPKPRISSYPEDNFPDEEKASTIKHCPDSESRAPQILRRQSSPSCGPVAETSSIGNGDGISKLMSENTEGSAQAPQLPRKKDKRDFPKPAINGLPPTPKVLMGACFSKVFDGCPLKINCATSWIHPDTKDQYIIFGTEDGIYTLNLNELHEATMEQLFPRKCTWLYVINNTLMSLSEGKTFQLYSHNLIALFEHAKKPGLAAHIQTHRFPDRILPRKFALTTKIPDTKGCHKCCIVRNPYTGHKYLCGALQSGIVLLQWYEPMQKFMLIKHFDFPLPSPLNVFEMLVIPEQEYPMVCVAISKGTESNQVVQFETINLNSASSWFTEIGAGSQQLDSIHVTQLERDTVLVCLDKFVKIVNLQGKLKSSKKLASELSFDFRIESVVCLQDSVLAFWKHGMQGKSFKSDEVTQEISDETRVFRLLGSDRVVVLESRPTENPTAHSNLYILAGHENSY
Sequence of Serine/threonine-protein kinase D2 (Q9BZL6 whole entry): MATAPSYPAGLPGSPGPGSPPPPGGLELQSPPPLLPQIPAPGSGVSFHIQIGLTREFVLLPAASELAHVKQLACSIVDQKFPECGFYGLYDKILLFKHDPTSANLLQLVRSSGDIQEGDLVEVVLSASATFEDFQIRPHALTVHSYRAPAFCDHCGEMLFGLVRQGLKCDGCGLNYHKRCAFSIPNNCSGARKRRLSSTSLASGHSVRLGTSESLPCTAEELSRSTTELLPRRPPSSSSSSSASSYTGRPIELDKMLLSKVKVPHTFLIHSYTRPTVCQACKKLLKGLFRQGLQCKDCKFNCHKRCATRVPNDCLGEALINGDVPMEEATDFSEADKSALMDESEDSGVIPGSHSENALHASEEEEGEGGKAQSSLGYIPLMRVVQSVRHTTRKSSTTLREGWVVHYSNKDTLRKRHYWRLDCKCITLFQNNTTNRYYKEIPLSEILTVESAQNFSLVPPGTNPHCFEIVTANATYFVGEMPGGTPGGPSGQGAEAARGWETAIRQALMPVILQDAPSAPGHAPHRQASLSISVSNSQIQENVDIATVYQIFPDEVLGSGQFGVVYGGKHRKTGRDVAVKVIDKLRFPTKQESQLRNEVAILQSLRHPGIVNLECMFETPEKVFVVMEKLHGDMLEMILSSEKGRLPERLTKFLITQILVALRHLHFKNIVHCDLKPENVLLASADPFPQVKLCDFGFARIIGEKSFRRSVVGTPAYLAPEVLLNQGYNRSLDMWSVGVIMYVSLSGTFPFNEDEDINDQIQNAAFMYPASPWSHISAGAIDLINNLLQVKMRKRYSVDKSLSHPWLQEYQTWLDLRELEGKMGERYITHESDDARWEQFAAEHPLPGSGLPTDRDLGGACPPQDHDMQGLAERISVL
Sequence of Serine/threonine-protein kinase PAK 1 (Q13153 whole entry): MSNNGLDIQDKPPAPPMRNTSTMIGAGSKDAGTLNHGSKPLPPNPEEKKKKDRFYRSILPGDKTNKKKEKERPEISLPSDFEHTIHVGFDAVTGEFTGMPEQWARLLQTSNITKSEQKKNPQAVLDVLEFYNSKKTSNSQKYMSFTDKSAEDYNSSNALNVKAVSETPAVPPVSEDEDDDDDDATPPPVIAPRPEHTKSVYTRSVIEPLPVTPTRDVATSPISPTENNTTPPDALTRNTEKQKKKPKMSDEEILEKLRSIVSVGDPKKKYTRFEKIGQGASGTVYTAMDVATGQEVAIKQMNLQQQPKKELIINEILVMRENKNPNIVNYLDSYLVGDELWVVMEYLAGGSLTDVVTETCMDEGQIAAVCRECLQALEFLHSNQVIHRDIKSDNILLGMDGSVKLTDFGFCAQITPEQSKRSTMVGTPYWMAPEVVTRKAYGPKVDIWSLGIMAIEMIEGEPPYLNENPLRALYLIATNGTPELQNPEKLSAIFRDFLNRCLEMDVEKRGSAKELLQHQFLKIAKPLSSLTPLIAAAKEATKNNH
Sequence of Homeodomain-interacting protein kinase 4 (Q8NE63 whole entry): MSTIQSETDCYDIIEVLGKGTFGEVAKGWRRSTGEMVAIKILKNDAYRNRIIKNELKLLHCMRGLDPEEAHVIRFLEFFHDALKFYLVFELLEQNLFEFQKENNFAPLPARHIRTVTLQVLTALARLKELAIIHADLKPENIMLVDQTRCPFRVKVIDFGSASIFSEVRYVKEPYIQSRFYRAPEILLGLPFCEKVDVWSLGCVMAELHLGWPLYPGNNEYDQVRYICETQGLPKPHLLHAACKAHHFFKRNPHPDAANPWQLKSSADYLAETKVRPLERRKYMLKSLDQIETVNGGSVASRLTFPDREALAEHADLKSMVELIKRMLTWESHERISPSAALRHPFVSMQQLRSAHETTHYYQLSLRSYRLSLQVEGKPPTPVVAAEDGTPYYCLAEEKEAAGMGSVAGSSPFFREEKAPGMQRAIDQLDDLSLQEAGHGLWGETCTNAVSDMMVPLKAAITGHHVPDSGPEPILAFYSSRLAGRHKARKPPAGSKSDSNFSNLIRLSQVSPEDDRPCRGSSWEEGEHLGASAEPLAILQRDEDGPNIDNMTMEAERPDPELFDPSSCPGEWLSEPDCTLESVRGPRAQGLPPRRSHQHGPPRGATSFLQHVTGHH
Sequence of Interleukin-1 receptor-associated kinase 1 (P51617 whole entry): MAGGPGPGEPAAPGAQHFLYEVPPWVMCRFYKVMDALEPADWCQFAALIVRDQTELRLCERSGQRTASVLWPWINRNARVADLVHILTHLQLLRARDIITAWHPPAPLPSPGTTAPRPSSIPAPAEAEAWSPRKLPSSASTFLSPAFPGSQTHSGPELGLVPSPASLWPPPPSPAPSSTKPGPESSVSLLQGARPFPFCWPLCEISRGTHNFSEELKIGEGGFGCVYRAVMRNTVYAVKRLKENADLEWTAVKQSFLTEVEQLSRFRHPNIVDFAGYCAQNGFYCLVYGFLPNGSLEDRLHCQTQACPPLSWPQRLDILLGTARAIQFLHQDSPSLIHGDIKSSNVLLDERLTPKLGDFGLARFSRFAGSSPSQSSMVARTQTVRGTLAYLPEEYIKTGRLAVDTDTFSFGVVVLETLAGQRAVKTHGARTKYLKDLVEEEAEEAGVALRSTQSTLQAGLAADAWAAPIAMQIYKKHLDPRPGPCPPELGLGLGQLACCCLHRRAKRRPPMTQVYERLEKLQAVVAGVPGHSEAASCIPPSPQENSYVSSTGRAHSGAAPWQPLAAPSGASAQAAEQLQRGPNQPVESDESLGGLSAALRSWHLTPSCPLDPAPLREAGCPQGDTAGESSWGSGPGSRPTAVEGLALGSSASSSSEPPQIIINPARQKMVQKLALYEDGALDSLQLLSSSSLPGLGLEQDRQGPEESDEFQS

Ki [1]: > 2000 nM (inactive)
Ki [2]: > 3160 nM (inactive)
Compound: COc1cccc(CNC(=O)c2cnc(-c3ccncc3)nc2)c1

IC50 [3]: 6290 nM (active)
AC50 (Caspase-8): 18600 nM (active)
Compound: O=C(COC(=O)c1ccc([N+](=O)[O-])s1)Nc1ccc(F)cc1
IC50 [4]: 4050 nM (active)

Ki [5]: > 1260 nM (inactive)
Ki [6]: > 1580 nM (inactive)
Ki [7]: 398 nM (active)
pKi [7]: 6.4
Ki [8]: 1000 nM (active)
Ki [9]: 200 nM (active)
pKi [9]: 6.7
Ki [10]: 398 nM (active)
pKi [10]: 6.4
Ki [11]: 1000 nM (active)
pKi [11]: 6
Ki [12]: 5.01 nM (active)
pKi [12]: 8.3
Ki [13]: 79.4 nM (active)
pKi [13]: 7.1
Ki (Misshapen-like kinase 1): 3.16 nM (active)
pKi (Misshapen-like kinase 1): 8.5
Ki [14]: 20 nM (active)
pKi [14]: 7.7
Ki [15]: 79.4 nM (active)
pKi [15]: 7.1
Ki [16]: 1260 nM (active)
pKi [16]: 5.9
Ki [17]: 63.1 nM (active)
pKi [17]: 7.2
Ki [18]: 50.1 nM (active)
pKi [18]: 7.3
Ki [19]: 39.8 nM (active)
pKi [19]: 7.4
Compound: OC1CCC(Nc2nc(Cl)cc(-c3c[nH]c4ncccc34)n2)CC1 (centres undefined)
